Measurements: paper PMC12648443, “Modifications of NU-9, a potent protein aggregation inhibitor. Properties and activity in a cellular model of amyotrophic lateral sclerosis” (Bioorganic chemistry, 2025)

What was measured:
[1] = tested on: MG132-induced mutant SOD1 intracellular aggregation in PC12-SOD1^G85R YFP cells; assay: Protection against MG132-induced mut-SOD1 intracellular aggregation (fluorescence microscopy); type: cell-based
Method: The PC12 Tet-Off-SOD1^G85R YFP cells were cultured in DMEM media supplemented with 10 % horse serum, 5 % Tet-approved FBS, 1 % Penstrep, 1× L-glutamine, 200 μg/mL hygromycin, 100 μg/mL G418, with 1 μg/mL Doxycycline and were incubated at 37 °C in humidified air with […] until 90–95 % confluency. To induce the expression of SOD1^G85R YFP, the Doxycycline was removed at least 4 days before the experiment. To remove the Doxycycline, the media was removed, and the cells were washed 3 times with 1xPBS. The cells were then cultured in standard culture media without Doxycycline. To set up the assay, the cells were then seeded into 96-well cell culture plates (Greiner Bio-One Catalog #655090) at a concentration of 50,000 cells/well with a final volume of 100 μL/well and incubated in the CO2 incubator at 37 °C for 24 h. The media were removed from the cells and replaced with 100 μL of media containing 0.1 % DMSO or compounds, and incubated in the CO2 incubator at 37 °C for 6 h. The media were then replaced with fresh 100 μL of media containing the diluted compounds with 0.7 μM (−)-MG-132, and the plates were incubated for 72 h under culture conditions. After 72 h, the cells were stained with Hoescht 33,342 (55 μg/mL, 10 μL/well) and imaged (lex = 358, 513 nm) using a Molecular Devices ImageXpress Micro Confocal High-Content Imaging System equipped with a 40× objective. […] Image binning was set to 2. DAPI fluorescence was captured using an exposure time of 300 ms, and FITC fluorescence was captured using an exposure time of 400 ms. A 13-plane z-series was acquired for each field of view with a step size of 3 μm. For each condition, 2 sets of 9 images were generated in a 3 × 3 grid to separately image the SOD1^G85R YFP proteins and the nuclei stained with Hoescht 33,342. Image analysis was performed with MetaXpress software (Molecular Devices) using the Transfluor module. Parameters for puncta detection (aggregates) were set with a minimum pit width of 2 μm and a maximum pit width of 5 μm. Signal intensity thresholds were defined as 700 grayscale units above the local background. The analysis provided the average area of each cell that is covered by puncta (pit/cell), which are indicated by bright green spots on the SOD1^G85RYFP image set.
The assay was performed in triplicate for each condition tested, and wells containing the media with vehicle (0.1 % DMSO) or (−)-MG-132 alone were used as controls representing the minimum and maximum aggregate formation. […] The data for EC50 determination was treated with Prism and fitted using a semi-logarithmic curve for determination of the EC50 values of NU9 and compounds 4, 6, 20 and 21.

[2] = In vitro cytotoxicity, CellTiter-Glo, HepG2; type: cell-based; conditions: human, HepG2 cells
Method: (§1) The HepG2 and HEK293 cells were cultured in DMEM media supplemented with 10 % FBS (heat-inactivated), 1 % Pen-strep, and L-glutamine and incubated at 37 °C in humidified air with 5 % CO2 until 85–90 % confluency. The PC12 Tet-Off-SOD1^G85R YFP cells were maintained as described in 4.2. On the day before the experiments, the cells were transferred to white bottom 96 well plates (Greiner cat. 655,083) at a concentration of 50,000 cells/100 μL of media in each well and incubated overnight at 37 °C. Stock solutions of the compounds (30 mM) in DMSO were prepared and then diluted in media to obtain the six final working solutions starting at 30 μM, and serial dilutions were obtained with the lowest concentration at 0.25 μM. The media were removed and fresh media containing the compounds or the vehicle DMSO (0.1 % v/v) were transferred to the plates containing HepG2 and HEK293 cells and the plates were incubated for 24 or 48 h at 37 °C. The PC12 Tet-Off-SOD1^G85R YFP cells compound treatment was performed as described in section 4.2 and using a 9-point 2-fold serial dilution of the compounds starting at 15 μM and the lowest concentration at 0.05 μM. After incubation, the plates were cooled to room temperature and 25 μL of CellTiter-Glo® solution was added to each well. The plates were loaded into a BioTek Synergy H1 MD plate reader and shaken for 2 min, stabilized for 10 min without shaking, and then the luminescence values were read for each well (luminescence integration step 1 ms). Wells containing media with the vehicle DMSO with or without cells were used as controls to represent, respectively, the maximum viability and the lowest viability (background signal) for the cytotoxicity studies with HepG2 and HEK293 cell lines. The viability values for the assay performed with the PC12 Tet-Off-SOD1^G85R YFP cells were normalised for the vehicle (0.1 % DMSO) and (−)-MG-132 alone treatments, which represented respectively the […] viability for the assay.
(§2) The results are presented as an average of three independent experiments, each performed in triplicate, for the cytotoxicity experiments performed with HepG2 and HEK293 cells. The results for the protective screening with the PC12 Tet-Off-SOD1^G85R YFP cells are presented as an average of four replicates.

[3] = tested on: HepG2 cells; assay: In vitro cytotoxicity, CellTiter-Glo, HepG2; type: cell-based; conditions: cytotoxicity EC50 (HepG2, HEK293) versus PC12-SOD1^G85R EC50
Method: as §1, §2

[4] = In vitro cytotoxicity, CellTiter-Glo, HEK293; type: cell-based; conditions: human, HEK293 cells
Method: as §1, §2

[5] = tested on: PC12-SOD1^G85R YFP cells co-treated with MG132; assay: Viability screening against MG132-induced toxicity, CellTiter-Glo; type: cell-based; conditions: PC12-SOD1^G85R YFP cells co-treated with MG132 and the compounds; read-out: PC12-SOD1^G85R EC50, in vitro viability screening (protection against MG132-induced toxicity)
Method: as §1, with “assay. […]” for “assay.”

[6] = pig, PAMPA, 18 h, 250 μM, pH 7.5
Method: (§3) A solution of 1 × PBS (pH 7.5) was initially prepared by the dilution of a commercially available 10 × PBS solution. […] A solution of porcine brain lipid (PBL) (20 mg/mL in dodecane) was prepared, and 4 μL of this solution was used to coat the filters on the bottom of the PAMPA donor plates (Sigma Aldrich #MAIPNTR10). After air drying for 20 min, the donor plate wells were charged with 250 μL of the solutions of the test compounds or the controls. The donor plate was then placed over the acceptor plate (Sigma Aldrich #MATRNPS50), in which wells were previously filled with 1 × PBS (2 % DMSO v/v) solution. The PAMPA sandwich was closed with parafilm and incubated at 25 °C for 18 h in a humidity-saturated atmosphere with orbital agitation. […] The UV spectra (250–400 nm) of each well were acquired on a BioTek Synergy H1 MD plate reader equipped with a monochromator at room temperature.
(§4) CA(t) is the concentration of the compounds at the final time of incubation on the acceptor well; CD(0) and CD(t) are the concentration of the compounds at the initial time of incubation and at the final time of incubation on the donor well, respectively.

[7] = parameters: method as in PMID 33634973; conditions: human microsomes; cited from earlier work
[8] = parameters: method as in PMID 33634973; conditions: mouse microsomes; cited from earlier work
[9] = tested on: cells containing SOD1 mutations associated with ALS; parameters: method as in PMID 21073276, PMID 22189273, PMID 22837812; conditions: Fig. 1, evolution of CHD series; cited from earlier work
[10] = tested on: primary hippocampal neuronal cells; parameters: method as in PMID 40030015; conditions: cited from earlier work
[11] = tested on: primary hippocampal neurons; parameters: method as in PMID 40030015; conditions: cited from earlier work
[12] = Parallel artificial membrane permeability assay - blood brain barrier (PAMPA-BBB); conditions: pig, PAMPA, pH 7.5
Method: as §3, §4

Question: Which results are given for C[C@H](Oc1cc(C(F)(F)F)cc(C(F)(F)F)c1)C1CC(=O)CC(=O)C1 [NU-9]?
Answer: EC50 ([1]; PC12-SOD1^G85R YFP cells, 0.7 μM MG132, 72 h, Inactive = no decrease of aggregates at 10 μM vs vehicle): 2.52 ± 0.38 µM; decrease in MG132-induced SOD-1^G85R aggregate formation ([1]; at 10 μM, 72 h): marked decrease; viability at 24 h, 30 μM ([2]; 30 μM, 24 h, relative to untreated cells, read-out: Percentage of viable cells observed at 30 μM treatment, HepG2): 93.5%; viability at 48 h, 30 μM ([2]; 30 μM, 48 h, relative to untreated cells, read-out: Percentage of viable cells observed at 30 μM treatment, HepG2): 96.3%; EC50 at 24 h ([2]; cytotoxicity, 24 h): > 30 µM; EC50 at 48 h ([2]; cytotoxicity, 48 h): > 30 µM; EC50 Fold difference [3]: >12; viability at 24 h, 30 μM ([4]; 30 μM, 24 h, relative to untreated cells, read-out: Percentage of viable cells observed at 30 μM treatment, HEK293): 85.7%; viability at 48 h, 30 μM ([4]; 30 μM, 48 h, relative to untreated cells, read-out: Percentage of viable cells observed at 30 μM treatment, HEK293): 89.6%; EC50 at 24 h ([4]; cytotoxicity, 24 h): > 30 µM; EC50 at 48 h ([4]; cytotoxicity, 48 h): > 30 µM; EC50 [5]: 3.37 ± 0.26 µM; Log Pe [6]: −5.16; t1/2 (human) [7]: 74^27 min; t1/2 (mouse) [8]: 52^27 min; EC50 [9]: 0.3 µM; Amyloid-beta oligomer build-up [10]: capable of reducing Amyloid-beta oligomer build-up; LC3II puncta [11]: capable of increasing LC3II puncta; Papp at 18 h, 250 μM [12]: 6.98 ± 0.14 ×10⁻⁶ cm/s
